{"source": "patent US20250270235A1", "about": "“COMPLEX OF GADOLINIUM AND A CHELATING LIGAND DERIVED OF A DIASTEREOISOMERICALLY ENRICHED PCTA AND SYNTHESIS METHOD” (GUERBET, priority 2019, published 2025)", "origin": "cited, not measured here", "key": {"[1]": {"details": "comparative, same conditions (pH 1.2, 37° C.); cited from earlier work"}, "[2]": {"details": "as described in WO 2014/174120; comparative; cited from earlier work"}}, "data": [{"molecule": "O=C([O-])CN1CCN(CC(=O)[O-])CCN([C@H](CO)[C@H](O)CO)CCN(CC(=O)[O-])CC1.[Gd+3]", "note": "(racemic) [gadobutrol]", "values": [{"measurement": "kinetic inertia", "setting": "[1]", "value": 18, "unit": "h"}]}, {"molecule": "O=C([O-])CN1CCN(CC(=O)[O-])CCN(CC(=O)O)CCN(CC(=O)[O-])CC1.[Gd+3]", "note": "[DOTA-Gd, gadolinium complex of 1,4,7,10-tetraazacyclododecane-N,N′,N″,N′″-tetraacetic acid]", "values": [{"measurement": "log (Ktherm), stability constant", "setting": "[2]", "value": 25.6}]}, {"molecule": "CNC(=O)CN(CCN(CCN(CC(=O)[O-])CC(=O)NC)CC(=O)[O-])CC(=O)[O-].[Gd+3]", "note": "[gadodiamide]", "values": [{"measurement": "kinetic inertia (dissociation, in words)", "setting": "[1]", "value": "dissociate instantaneously"}]}, {"molecule": "O=C([O-])CN(CCN(CC(=O)[O-])CC(=O)[O-])CCN(CC(=O)[O-])CC(=O)[O-].[Gd+3]", "note": "[gadopentetate]", "values": [{"measurement": "kinetic inertia (dissociation, in words)", "setting": "[1]", "value": "dissociate instantaneously"}]}, {"molecule": "CNC[C@H](O)[C@@H](O)[C@H](O)[C@H](O)CO.O=C([O-])CN1CCN(CC(=O)[O-])CCN(CC(=O)O)CCN(CC(=O)[O-])CC1.[Gd+3]", "note": "[gadoterate]", "values": [{"measurement": "kinetic inertia", "setting": "[1]", "value": 96, "unit": "h"}]}]}
